Measurements reported in patent publication US20220362232A1, “TOPICAL COMPOSITIONS COMPRISING A MACROLIDE IMMUNOSUPPRESSANT” (BAUSCH HEALTH IRELAND LIMITED, priority 2020, published 2022).

What was measured:
[1] = Solubility and stability in alkyl diesters of aliphatic dicarboxylic acids; assay type: physicochemical
[2] = cited from earlier work

SMILES | Solubility and stability in alkyl diesters of aliphatic dicarboxylic acids [1] | Solubility in methanol and ethanol ([2]; methanol and ethanol) | Solubility in water [2] | Solubility in benzyl alcohol, chloroform, acetone, and acetonitrile [2]
CC[C@@H]1/C=C(\C)C[C@H](C)C[C@H](OC)[C@H]2O[C@@](O)(C(=O)C(=O)N3CCCC[C@H]3C(=O)O[C@H](/C(C)=C/[C@@H]3CC[C@H](Cl)[C@H](OC)C3)[C@H](C)[C@@H](O)CC1=O)[C@H](C)C[C@@H]2OC [Pimecrolimus] | particularly soluble and stable | soluble | insoluble | 
CO[C@H]1C[C@@H]2CC[C@@H](C)[C@@](O)(O2)C(=O)C(=O)N2CCCC[C@H]2C(=O)O[C@H]([C@H](C)C[C@@H]2CC[C@@H](O)[C@H](OC)C2)CC(=O)[C@H](C)/C=C(\C)[C@@H](O)[C@@H](OC)C(=O)[C@H](C)C[C@H](C)/C=C/C=C/C=C/1C [Sirolimus] | particularly soluble and stable |  | insoluble | soluble
C=CC[C@@H]1/C=C(\C)C[C@H](C)C[C@H](OC)[C@H]2O[C@@](O)(C(=O)C(=O)N3CCCC[C@H]3C(=O)O[C@H](/C(C)=C/[C@@H]3CC[C@@H](O)[C@H](OC)C3)[C@H](C)[C@@H](O)CC1=O)[C@H](C)C[C@@H]2OC [Tacrolimus] | particularly soluble and stable |  | insoluble | soluble
